Source: patent US6337306B1, “Phenoxyacetic acid derivatives and their use as herbicides” (Rhone-Poulenc Agro, priority 1997, dated 2002)

Key:
Echinochloa oryzicola = experiment: Test Method 1: soil application in paddy fields, herbicidal efficacy; format: in vivo; settings: 1 kg ai/ha, wettable powder applied to paddy water, assessed 28 days after application; further: ranges in brackets are in %
Protocol: (§1) Test Method 1 (Soil Application in Paddy Fields) A suitable amount of water and chemical fertiliser were added to paddy field soil. A plastic pot (1/5000 a; 200 cm2) was filled with a portion of this soil followed by kneading to convert it to a state of a paddy field. A stock of paddy field rice plant (variety: Koshihikari) comprising a pair of two seedlings, which had been grown in advance in a greenhouse to the stage of two leaves, was transplanted into each pot. Furthermore, in each pot, there were sown predetermined amounts of seeds of Echinochloa orizicola, Monochoria vaginalis var. plantaginea, Lindernia procumbens and Scirpus jundoides var. hotarui, respectively, and water was added to a depth of 3 cm. On the next day a wettable powder formula was prepared by the method described in the Formulation Example 2, and diluted with a suitable amount of water to give a concentration of active ingredient of 1 kg per ha. The diluted formula was applied by dropping with a pipette. After 28 days from the application with the chemicals, herbicidal effects on each weeds and phytotoxicity on paddy field rice plants were assessed according to the following criteria of Table 3. [table]

Lindemia procunbens = experiment: as above; format: in vivo; settings: 1 kg ai/ha, wettable powder applied to paddy water, assessed 28 days after application; further: ranges in brackets are in %
Protocol: as §1

Monochoria vaginalis = experiment: as above; format: in vivo; settings: 1 kg ai/ha, wettable powder applied to paddy water, assessed 28 days after application; further: ranges in brackets are in %
Protocol: as §1

Scirpus juncoides = experiment: as above; format: in vivo; settings: 1 kg ai/ha, wettable powder applied to paddy water, assessed 28 days after application; further: ranges in brackets are in %
Protocol: as §1

Oryza sativa = experiment: Test Method 1: soil application in paddy fields, phytotoxicity on transplanted paddy field rice plants; format: in vivo, Oryza sativa (variety: Koshihikari); settings: 1 kg ai/ha, transplanted rice at two-leaf stage, assessed 28 days after application; further: ranges in brackets are in %
Protocol: as §1

Soya, Maize, Rice, Wheat = experiment: Test Method 2: crop damage / selectivity, glass house pot test; format: in vivo, crop species; settings: at levels of applications toxic to the weeds
Protocol: TEST METHOD 2 a) General Appropriate quantities of the compounds used to treat the plants were dissolved in acetone to give solutions equivalent to application rates of up to 250 g test compound per hectare (g/ha). These solutions were applied from an automatic laboratory herbicide sprayer delivering the equivalent of 720 liters of spray fluid per hectare. b) Weed control: Pre-emergence The seeds were sown in 70 mm square, 75 mm deep plastic pots in non-sterile soil, 3 species per pot. The quantities of seed per pot were as follows: [table] The compounds of the invention were applied to the soil surface, containing the seeds, as described in (a). Pots containing the species represented were allocated to each treatment, with unsprayed controls and controls sprayed with acetone alone. After treatment the pots were placed on capillary matting kept in a glass house, and watered overhead. Visual assessment of crop damage was made 17 days after spraying. The results were expressed as the percentage reduction in growth or damage to the crop or weeds, in comparison with the plants in the control pots.

| Structure (SMILES) | Herbicidal efficacy (Point) ECHOR (Echinochloa oryzicola) | Herbicidal efficacy (Point) LIDPY (Lindemia procunbens) | Herbicidal efficacy (Point) MOOVA (Monochoria vaginalis) | Herbicidal efficacy (Point) SCPJU (Scirpus juncoides) | Phytotoxicity ORYSA (Oryza sativa) | crop selectivity (Soya, Maize, Rice, Wheat) | Herbicidal efficacy (Point) ECHOR (Echinochloa oryzicola; listed as 5.146 E isomer) | Herbicidal efficacy (Point) LIDPY (Lindemia procunbens; listed as 5.146 E isomer) | Phytotoxicity ORYSA (Oryza sativa; listed as 5.146 E isomer) | Herbicidal efficacy (Point) ECHOR (Echinochloa oryzicola; listed as 5.146 Z isomer) | Herbicidal efficacy (Point) LIDPY (Lindemia procunbens; listed as 5.146 Z isomer) | Phytotoxicity ORYSA (Oryza sativa; listed as 5.146 Z isomer) |
| --- | --- | --- | --- | --- | --- | --- | --- | --- | --- | --- | --- | --- |
| COC=C(Oc1ccc(Cl)cc1CBr)C(=O)OC [Compound 1.73] | 10 (90-100) | 7 (60-70) | 10 (90-100) | 9 (80-90) | 2 (10-20) | selective in at least one crop species |  |  |  |  |  |  |
| COC=C(Oc1ccc(Cl)cc1CO)C(=O)OC [Compound 1.313, Methyl 2-(2-Hydroxymethyl-4-chlorophenoxy)-3-methoxyacrylate] | 10 (90-100) | 10 (90-100) | 10 (90-100) | 10 (90-100) | 3 (20-30) | selective in at least one crop species |  |  |  |  |  |  |
| COC=C(Oc1ccccc1COc1ccccc1C)C(=O)OC [Compound 2.6, Methyl 2-[2-(2-Methylphenoxy)methylphenoxy]-3-methoxyacrylate] | 10 (90-100) | 8 (70-80) | 10 (90-100) | 7 (60-70) | 3 (20-30) |  |  |  |  |  |  |  |
| COC=C(Oc1ccc(Cl)cc1COc1ccccc1C)C(=O)OC [Compound 2.129] | 10 (90-100) | 9 (80-90) | 10 (90-100) | 8 (70-80) | 2 (10-20) | selective in at least one crop species |  |  |  |  |  |  |
| COC=C(Oc1ccc(Cl)cc1COc1ccccc1C)C(=O)O [Compound 2.135, 2-[4-Chloro-2-(2-methylphenoxymethyl)]phenoxy-3-methoxyacrylic Acid] | 4 (30-40) | 0 (0) | 9 (80-90) | 4 (30-40) | 0 (0) |  |  |  |  |  |  |  |
| COC=C(Oc1ccc(Cl)cc1COC(C)=O)C(=O)OC [Compound 2.619, Methyl 2-(2-Acetyloxymethyl-4-chlorophenoxy)-3-methoxyacrylate] | 10 (90-100) | 10 (90-100) | 10 (90-100) | 9 (80-90) | 3 (20-30) | selective in at least one crop species |  |  |  |  |  |  |
| COC=C(Oc1ccc(Cl)cc1CON=C(C)C)C(=O)OC [Compound 4.61] | 10 (90-100) | 10 (90-100) | 9 (80-90) | 9 (80-90) | 1 (0-10) |  |  |  |  |  |  |  |
| COC=C(Oc1ccccc1CON=C(C)c1ccc(Cl)cc1)C(=O)OC [Compound 4.68] | 10 (90-100) | 8 (70-80) | 10 (90-100) | 6 (50-60) | 3 (20-30) |  |  |  |  |  |  |  |
| COC=C(Oc1ccc(Cl)cc1CON=C(C)c1ccc(Cl)cc1)C(=O)OC [Compound 4.71] | 10 (90-100) | 9 (80-90) | 10 (90-100) | 9 (80-90) | 3 (20-30) | selective in at least one crop species |  |  |  |  |  |  |
| COC=C(Oc1ccccc1CON=C(C)OCc1ccccc1)C(=O)OC [Compound 4.99] | 9 (80-90) | 8 (70-80) | 10 (90-100) | 5 (40-50) | 3 (20-30) |  |  |  |  |  |  |  |
| COC=C(Oc1ccc(Cl)cc1CON=C(C)OCc1ccccc1)C(=O)OC [Compound 4.107] | 10 (90-100) | 5 (40-50) | 10 (90-100) | 9 (80-90) | 1 (0-10) | selective in at least one crop species |  |  |  |  |  |  |
| CCC(=NOCc1ccccc1)OCc1ccccc1OC(=COC)C(=O)OC [Compound 5.146 E isomer, Methyl 2-{2-[(1-Benzyloxyiminopropyl)oxymethyl]phenoxy}-3-methoxyacrylate] |  |  |  |  |  |  | 9 (80-90) | 8 (70-80) | 2 (10-20) |  |  |  |
| CCC(=NOCc1ccccc1)OCc1ccccc1OC(=COC)C(=O)OC [Compound 5.146 Z isomer, Methyl 2-{2-[(1-Benzyloxyiminopropyl)oxymethyl]phenoxy}-3-methoxyacrylate] |  |  | 10 (90-100) | 3 (20-30) |  |  |  |  |  | 10 (90-100) | 9 (80-90) | 3 (20-30) |
| CCC(=NOCc1ccccc1)OCc1cc(Cl)ccc1OC(=COC)C(=O)OC [Compound 5.541 E isomer] | 10 (90-100) | 10 (90-100) | 10 (90-100) | 9 (80-90) | 1 (0-10) | selective in at least one crop species |  |  |  |  |  |  |
